# Test results reported in patent publication US9011863B2, “Combinations of kinase inhibitors for the treatment of cancer” (Exelixis, Inc., priority 2010, dated 2015).
# Key:
# [1] = system: BT474 xenografts; experiment: BT474 xenograft experiments; assay type: in vivo, mice; details: trastuzumab 30 mg/kg twice-a-week i.p.; lapatinib 100 mg/kg daily; compound A 100 mg/kg daily gavage; 28 days
# Experimental: Tumor volumes were recorded twice-a-week. Each data point represents the mean tumor volume in mm^3±SE of 8 mice per type of treatment. CR=complete response to treatment.
# Animal experiments were approved by the Institutional Animal Care Committee of Vanderbilt University Medical Center (VUMC). Mice were housed in the accredited Animal Care Facility of the VUMC. A 17β-estradiol pellet (Innovative Research of America) was injected subcutaneously (s.c.) into each 6- to 7-week-old athymic female mice (Harlan Sprague Dawley, Inc.) the day before tumor cell injection. BT474 cells (3×10^6) mixed 1:1 with Matrigel (BD Biosciences) were injected s.c. into the right flank of each mouse. Tumor diameters were measured with calipers twice-a-week and volume in mm^3 calculated with the formula: volume=width^2×length/2. […] Mice were euthanized after 28 days of treatment.
# There was no significant drug-related toxicity in any of the treatment arms.
# [2] = system: receptors of tyrosine kinase (RTKs) in BT474 cells; experiment: phospho-RTK arrays and RTK qPCR in BT474 cells; assay type: cell-based, human
# Experimental: FIG. 19B depicts a photomicrograph of BT474 cells were treated with 6 μM compound A over a time course up to 24 hours as indicated. Cell lysates were prepared, and 200 μg of total protein were hybridized to arrays containing probes for 42 different receptors of tyrosine kinase (RTKs).
# FIG. 19C depicts a photomicrograph of BT474 cells were treated with 6 μM compound A over a time course up to 24 hours as indicated.
# FIG. 19D depicts a bar-graph representing the amount of RTK mRNA as identified using real-time qPCR analysis of the indicated RTKs in RNA collected from BT474 cells treated with either DMSO or 10 μM compound A for 6 hours.
# Immunoprecipitation, immunoblotting, and RTK assays were performed according to published methods. Primary antibodies included AKT, pAKT^S473, pAKT^T308, ERK, pERK^T202/Y204, pHER2^Y1248, pHER3^Y1197, pHER3^Y1222, pHER3^Y1289, S6, pS6^S240/244, p27, pRb^S780, FoxO1, FoxO3a, MEK1/2 (Cell Signaling Technology, Danvers, Mass., USA), p85, 4G10 pTyr (Millipore, Billerica, Mass., USA), HER3, CyclinD1, RhoA, HDAC3 (Santa Cruz Biotechnology, Santa Cruz, Calif., USA), PARP (BD Transduction Laboratories), β-actin (Sigma, St. Louis, Mo., USA), and HER2 (Neomarkers, division of Thermo Scientific, Freemenot, Calif., USA). […] Immunoreactive signals were detected by enhanced chemilluminsecence (Pierce, Rockford, Ill., USA). […]
# [3] = system: HER3, pHER3^Y1289, pAKT^S473; experiment: immunohistochemistry of BT474 xenografts; assay type: in vivo, mice; details: day 28
# Experimental: FIG. 18B depicts photomicrographs of immunohistochemistry sections from formalin-fixed, paraffin-embedded tumor blocks. Xenografts were harvested on day 28, 1 hour after the last dose of lapatinib and/or compound A. Antibodies used were against HER3, pHER3^Y1289, and pAKT^S473. Photographs were taken at 400× magnification (scale bar: 50 μm).
# All tumor samples (collected within 1 hour of last treatment) were fixed in 10% neutral buffered formalin for 24 hours at room temperature, followed by dehydration and paraffin embedding. Immunostaining was done on 5-μm tissue sections. After deparaffinization in xylene and graded alcohols heat-induced antigen retrieval was performed in a pH 6.0 citrate buffer followed by incubation with 3% hydrogen peroxide for 20 minutes, with protein block (Dako) for 10 minutes, and finally with primary antibody overnight at 4° C. The Envision Visualization System (Dako, Carpinteria, Calif., USA) was used, followed by DAB as chromagen and counterstained with hematoxylin. Tumor sections were studied on a light microscope with an ocular magnification of 400 times. Average percentage and intensity of tumor cell staining was calculated as a histoscore (H-score) (as described in Goulding, H., et al. (1995), Hum. Pathol. 26:291-294, which is incorporated herein by reference in its entirety). An expert pathologist (MGK) scoring the sections was blinded to the type of treatment.
# Using immunohistochemistry (IHC), experiments were performed to examine pharmacodynamic biomarkers of target inactivation in xenografts after 28 days of treatment. […] Therefore, experiments were performed to quantify differences in pAKT^S473 expression in both cytoplasmic and nuclear compartments in xenograft sections.
# [4] = system: HCC1937 human breast cancer cells; experiment: HCC1937 cell viability, alamar blue assay; assay type: cell-based; details: read-out: growth inhibition IC50
# Experimental: FIG. 1B. siRNA screen to identify kinases that potentially compensate for PI3K inhibition. HCC1937 cells were seeded in triplicate in a 96-well plate and treated with DMSO or the indicated concentration of compound A for 72 hours. Cell viability was measured by the alamar blue assay.
# The purpose of the present study is to identify kinases and kinase-regulated signaling pathways that compensate for PI3K inhibition in human breast cancer cells. To this end, siRNA screen is employed targeting 779 human kinases in order to determine if downregulation of specific kinases increases the sensitivity of HCC1937 human breast cancer cells to the PI3K inhibitor compound A, which a compound of formula I and of Table 1. […] Following reverse transfection with the siRNA library, cells are treated with either DMSO or 10 μM compound A for 72 hours in a medium containing 2.5% fetal bovine serum (FIGS. 1A and 2) and the alamar blue assay is used to measure cell viability FIG. 1B. […] HCC1937 cells were treated with 10 μM compound A in medium containing 2.5% FBS for 0, 2, 8, or 24 hours. RNA was isolated with Trizol and purified using the RNeasy column (Qiagen). Gene expression from three independent experiments was measured using the Gene titan 3′ microarray. *, p<0.05; **, p<0.01 versus 0 hours, as shown in FIG. 5.
compound,measurement,setting,value
COc1ccc(Cl)c(Nc2nc3ccccc3nc2NS(=O)(=O)c2cccc(NC(=O)C(C)(C)N)c2)c1 [Compound A],"tumor growth, monotherapy",[1],significantly delayed tumor growth
same,phospho-RTK arrays,"[2]; BT474, 6 μM, 24-h time course","increase in not only HER3, but also multiple other RTKs"
same,RTK mRNAs by qPCR,"[2]; BT474, 10 μM, 6 hours","increase in ERBB4, IGF-IR, InsR, EphA1, FGFR2, and FGFR3 mRNAs"
same,nuclear pAKT^S473 by IHC,[3],statistically inhibited nuclear pAKT levels
same,pHER3 by IHC,[3],did not reduce membrane pHER3
same,IC50,[4],10 µM
